# US9833393B2, “Method and compositions for treating skin” (ELC Management LLC, priority 2015, dated 2017)
# System: per1 gene expression
# Experiment: per1 gene expression activity, per1-luciferase reporter plasmid in transfected keratinocytes
# Format: cell-based, human
# Details: NHEK, 16 hours incubation, luminescence
# Experimental: Normal human epidermal keratinocytes (NHEK) were diluted in EpiLife Media MEP1500CA with supplement S001-5 added (Gibco, Cascade Biologics, Invitrogen) to form a concentration of 3×10^4 and plated onto a black walled 96 well microtiter plate by adding 100 μl in each well. The plate was incubated for 3 hours at 37° C. in 5% CO2. The media was removed and remaining adhered cells rinsed with EpiLife Media MEP1500CA, supplement free. A plasmid solution was prepared by diluting Tris-EDTA pH 8.0 buffer with plasmid pGL4.11 (DNA 2.0, Carlsbad, Calif.) to form a 1 mg/ml solution. This plasmid contained a per1 gene sequence and a luciferase reporter gene sequence. A transfection mixture was prepared by diluting EpiLife Media MEP1500CA, supplement free, to form a solution with 0.31 μg/ml of plasmid (obtained by adding appropriate amount of plasmid solution prepared above), 1.28% Plus™ Reagent (Catalog No. 11514-015, Invitrogen, Carlsbad, Calif.), and 3.22% Lipofectamine™ Transfection Reagent (Catalog No. 18324-012, Invitrogen, Carlsbad, Calif.). Transfection mixture, […] to each well and the plate incubated for 4 hours at 37° C. in 5% CO2. Then 80 μl of EpiLife Media MEP1500CA with supplement S001-5 was added to the well containing the control (media alone), the transfection mixture control (transfection mixture without any active ingredient). Test wells and transfection control wells. To the test wells 80 μl of test material solution (test material diluted in EpiLife Media MEP1500CA with supplement S001-5) was added. The wells were incubated for 16 hours at 37° C. in 5% CO2. Immediately prior to reading, Bright-Glo™ (Pro-Mega, Madison Wis.) was added to each well plate in the same volume as is currently in the well (e.g. a 1:1 dilution). Luminescence was measured in an LMax™ Microplate Luminometer (Molecular Devices, Sunnyvale, Calif.).
molecule,measurement,setting,value
COc1ccc2[nH]cc(CCNC(C)=O)c2c1 [melatonin],increase in per1,100 uM concentration,39.2%
alpha bisabolol,increase in per1,0.01% concentration,0%
same,increase in per1,0.05% concentration,0%
same,increase in per1,0.1% concentration,0%
